# Data reported in patent US9789096B2, “Methods and compositions for selective and targeted cancer therapy” (Board of Regents of the University of Texas System, priority 2013, dated 2017).
# What was measured:
# [1] = molecular target: T1, HMOX2 (Homo sapiens, UniProt P30519); test: HMOX2 activity in H2122 cell homogenate (bilirubin production); assay type: biochemical
# T1 construct: endogenous in cells; host or cells: H2122 cells (homogenate / lysate)
# Method: FIG. 7N. Oxalamide inhibits the activity of HMOX2 in vitro. H2122 cell homogenate was incubated with varying concentrations of SW208108 in the presence of excess NADPH, NADPH cytochrome reductase, and biliverdin reductase. The samples were extracted with chloroform and absorbance was measured at 450 nm refecting bilirubin production.
# (§1) However, when HO2 was knocked out from H2122 cells using Crisper technology (FIG. 7O), no toxicity was observed, and SW208108 and related compounds retained toxicity towards H2122 cells (FIG. 7P). We conclude that HO2 is not required for cell survival or for the cytotoxicity of the selective toxins.
# [2] = tested on: H2122 cells; test: Covalent labelling of proteins in H2122 cells (click to fluorescent azide, SDS-PAGE); assay type: cell-based, human
# Method: FIG. 7A. […] H2122 cells were treated with the indicated concentrations of SW208108 for 4 h followed by irradiation with a UV light or no irradiation. Cells were then lysed, protein was precipitated, resuspended in buffer and conjugated to an azide-containing dye using Cu catalysis following standard protocols. Samples were resolved under denaturing conditions on an SDS-PAGE gel and visualized using a fluorescent imager at the indicated wavelengths.
# FIG. 7B. Chromone and Benzothiazole alkynes, like the oxalamide, covalently bind proteins of similar molecular weight. The arrows indicate a 37 kD and 30 kD band common to all three scaffolds.
# To identify the target of the benzothiazoles, oxalamides, N-acyl ureas and chromones, we generated a potent oxalamide, SW208108, that features both a “crosslinker” and a “tag”. Upon exposure to UV light, the benzophenone group becomes reactive and was anticipated to crosslink to a nearby amino acid, and the alkyne serves as a “tag” by its capacity to react with an azide through “click chemistry”. Combining these features, we treated H2122 cells with various concentrations of SW208108 and either cultured them normally (“−UV”) or irradiated them briefly with UV light (“+UV”). Subsequently, we “clicked” the resulting lysate to a fluorescent azide, and detected multiple fluorescently labeled proteins on SDS-PAGE (FIG. 7A). […]
# [3] = tested on: 4 sensitive cell lines; test: Rescue of toxicity by sodium oleate in 4 sensitive lines; assay type: cell-based, human; conditions: 100 μM sodium oleate
# Description: FIGS. 8D-8E. Sodium oleate rescues the toxicity of SCD1 inhibitors.
# Consistent with this interpretation, the toxicity of SW208108 against 4 sensitive cell lines was fully rescued by adding sodium oleic acid to the culture media (FIG. 8D). Moreover, a commercially available SCD1 inhibitor (Cayman chemicals), originally described by Liu et al (compound 28c in the Journal of Medicinal Chemistry, 2007, 50, 3086-3100) was likewise toxic to the same 4 non-small cell lung cancer cell lines (FIG. 8E).
# [4] = molecular target: T1, HMOX2; test: Immunoprecipitation of SW208108-bound protein with anti-HMOX2; assay type: binding
# Description: FIG. 7M. HMOX2 binds to SW208108 and is partially competed by an active competitor. Lysates collected from H2122 cells treated with SW208108 with or without competitor were immunoprecipitated with either IgG or anti-HMOX2 and then “clicked” to a dye-azide (as described in FIG. 7A). HMOX2 binds to SW208108 and binding is partially diminished in the presence of a competitor.
# as §1
# T1 sequence (P30519 whole entry): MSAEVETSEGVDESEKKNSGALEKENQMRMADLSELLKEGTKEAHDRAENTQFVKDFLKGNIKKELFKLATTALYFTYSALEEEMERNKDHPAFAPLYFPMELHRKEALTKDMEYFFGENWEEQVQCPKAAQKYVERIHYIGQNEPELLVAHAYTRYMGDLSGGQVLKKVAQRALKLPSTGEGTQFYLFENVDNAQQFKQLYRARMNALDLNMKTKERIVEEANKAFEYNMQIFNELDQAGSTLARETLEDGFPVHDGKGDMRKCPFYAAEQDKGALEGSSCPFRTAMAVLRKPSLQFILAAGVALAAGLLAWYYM
compound,measurement,setting,value
C#CCOc1ccc(C(=O)c2ccc(NC(=O)C(=O)NCCc3ccc(OC)cc3)cc2)cc1 [SW208108],activity of HMOX2 in vitro,[1],inhibits
same,"covalent modification of proteins (p37, p30) in H2122 cells without UV",[2],covalently cross links proteins
same,toxicity against 4 sensitive cell lines with sodium oleic acid,[3],fully rescued
same,covalent binding to HO2 (HMOX2),[4],covalently bound
